Experiment [1] has as its target T1, immobilized peptide fragment corresponding to the region 1-16 of the amyloid-β peptide (Homo sapiens, UniProt P05067).
T1 construct: N-terminal acetyl cap (Ac); C-terminal amide cap (NH2)
Put plainly: SPR binding (BIACORE T100), Example 3, in the absence of zinc. Particulars: for Kd: BIACORE T100, no zinc, at least 99% L isomers, read-out: dissociation constant Kd (Example 3). The source says:
The binding tests described in Example 1 were reproduced, with the same materials, reactives and procedures except for the following significant differences: • the BIACORE apparatus applied was the BIACORE T100 apparatus. This BIACORE T100 apparatus produces more accurate results than the BIACORE 3000 because it includes a degasification system upon injecting the analyte on the sensor and because the method for detecting immobilized ligand/analyte intermolecular complexes on the CM5 chip is more accurate. • the tetrapeptides according to the invention used were purified to at least 99% in L isomers according to HPLC data, the D isomers were prevented from forming and/or removed during the synthesis. In Example 1, the tetrapeptides only included 98% of L isomers. • the concentrations of the tetrapeptides according to the invention applied were 50; 100; 200; 500; 1,000; 1,500 and 2,000 μM. • these experiments were conducted in the absence of zinc. • the surface of the CM5 chips provided a surface which gave a variation of response units (RU) of about 1,023 arbitrary units, with a control liquid sample.
the dissociation constant Kd being given by the formula Kd=koff/kon.
For orientation: Surface plasmon resonance follows binding to a sensor surface in real time, without labels.

The target of experiment [2] is T2, immobilized peptide fragment corresponding to the 1-16 region of the amyloid-β peptide (Homo sapiens, UniProt P05067).
T2 construct: N-terminal acetyl cap (Ac); C-terminal amide cap (NH2)
T2 sequence (P05067 with tags, fused parts or gaps limits assumed): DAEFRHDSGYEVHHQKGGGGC
Put plainly: SPR binding (BIACORE 3000), Examples 1 and 2.
From the text: With this analysis, it is possible to calculate the dissociation constant Kd of the interaction of the peptide with the immobilized ligand, it being understood that the value of Kd is all the more smaller since the interaction with the ligand and therefore the stability of the formed interaction complex are high.
More specifically, in an SPR spectroscopy system, for example applying a biosensor from BIACORE, after immobilization of the ligand at the surface of a sensor of the chip type, in this case here the amyloid-β fragment, the analyte reagent is injected on said surface at a constant flow rate through systems of microfluidic channels. Polarized light emitted by a light source is reflected on the gold-covered surface of the chip, and then detected by a diode reader. According to the binding of the ligand and of the analyte molecule, the intensity of the reflected light is different. The variation in the response of the spectrometer (RU=Response unit) allows calculation of the dissociation constant of the interaction.
The chips of the biosensor came from GE Healthcare (USA). The SPR spectroscopy experiments were conducted with the BIACORE 3000 apparatus. The reagents for immobilizing the amyloid-β peptide fragment (EDC, NHS, PDEA and cysteine) were bought from GE Healthcare (USA). The buffer used for immobilizing the peptide ligand by formation of thiol bonds was 10 mM sodium acetate at pH 4.5. The regeneration buffer was an HBS buffer containing a medium with 10 mM HEPES and 3 mM EDTA, 0.005% of surfactant P20 and 150 mM NaCl at pH 7.4. […] All the buffers were filtered before use.
This peptide with 21 amino acids contains the 16 amino acids of the N-terminal end of the binding domain of the amyloid-β, i.e. [sequence] (SEQ. ID. NO.25), followed by 4 glycine amino acids and a cysteine C-Terminal end. Cysteine is necessary for immobilizing the ligand on the surface of the chip through a thiol bond according to the procedure of the supplier. 4 glycine amino acids therefore form a binding tetrapeptide (“linker”) between the chip and the ligand. Further, the thereby immobilized ligand has enough flexibility relatively to the surface, so as to validly mimic the interaction conditions between the tetrapeptide reagent and the ligand. This ligand was bound onto a CM5 chip of the biosensor, by following the standard procedure through a thiol bond under conditions described in the handbook of the sensor provided by the supplier GE Healthcare (USA).
The flow rate applied in all the steps was 5 μl/min. The carboxymethyl dextran matrix was activated by injecting a 1:1 mixture of 1-ethyl-3(3-dimethylaminopropyl)-carbodiimide (EDC) and of N-hydroxysuccinimide (NHS), i.e. 30 μl of EDC at 400 mM and NHS at 100 mM, followed by an injection of 80 mM PDEA (2-(2-pyridinyldithio)-ethane-amine) in solution in 0.1 M sodium borate at a pH of 8.5. The peptide ligand in solution in a sodium acetate buffer in an amount of 0.05 mg/ml was then injected. […] The control liquid was reacted with the surface of the chip according to the same procedure.
The surface of the chip was exposed for 330 seconds to the reagent buffer solution in order to track its binding. The surface of the chip was then regenerated by injecting a regeneration buffer (20 μL). The data of the control lane were subtracted from raw data of the lane corresponding to the immobilized reagent peptides.

A further experiment addresses T3, Aβ peptide (1-40) (Homo sapiens, UniProt P05067).
T3 construct: The complete β peptide 1-40 was used, marked by a fluorescent marker; purchased QUALITY CONTROLLED BIOCHEMICALS Inc. USA
The experiment in a line: Aβ aggregation on SYNTHALOID SCREENING PLATE kit (fluorescence). In kind it is biochemical. Particulars: for IC50: 100 nM marked Aβ (1-40), 3 hours at room temperature, buffer with physiological Zn(II), read-out: inhibitory concentration IC50 of aggregation of the Aβ peptide; for effect of prolonged incubation on amyloid aggregates: incubation for at least 1 hour, 20, 40, 80, 100 and 150 μM. As for the experimental part: They were left to incubate for 3 hours at room temperature in the wells.
In certain wells, tetrapeptides AC-HAEE-NH2 and Ac-RADD-NH2 according to the invention, were introduced at different concentrations depending on the wells (0, 5, 10, 20, 40, 80, 100 and 150 μM), for checking the effect of tetrapeptides according to the invention on the aggregation phenomenon of Aβ peptides.
To do this, at the end of the incubation, the unbound proteins in the wells were removed with three washings, by using the buffer solution above. The amount of bound proteins in the form of aggregates, bound to the well, was measured by measuring the fluorescence intensity.

Structures are written as SMILES. Where a SMILES comes first, the peptide text is derived from it.

The text below walks through data of patent US9334303B2, “Peptide compound useful for inhibiting amyloid plaque formation” (KIMONELLA VENTURES LTD., priority 2010, dated 2016).

T3 sequence (P05067 672-711 limits assumed): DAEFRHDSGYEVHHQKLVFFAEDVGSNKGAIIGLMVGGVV

Consider `CC(=O)N[C@@H](CCCCN)C(=O)N[C@@H](C)C(=O)N[C@@H](CCC(=O)O)C(=O)N[C@@H](CC(=O)O)C(N)=O` [SEQ. ID. NO. 9, KAED] (Ac-KAED-NH2), for which, in experiment [1], the koff is 0.019 ± 0.001 s⁻¹, the kon was found to be 5.7 ± 0.9 M⁻¹ s⁻¹ and the Kd fell in the range of 1000 to 10000 µM.

For the molecule `CC(=O)N[C@@H](Cc1c[nH]cn1)C(=O)N[C@@H](C)C(=O)N[C@@H](CCC(=O)O)C(=O)N[C@@H](CCC(=O)O)C(N)=O` [SEQ. ID. NO. 19, Ac-HAEE-NH2] (Ac-HAEE-NH2), the Kd in experiment [2] (BIACORE 3000, peptides with Ra=Ac, Rb=NH2, 98% L isomers, read-out: dissociation constant Kd) stood at 0.022 µM. Besides, in experiment [2] (Zn(II) 10 mM), the “interactions of the ligand with the reagent at high concentrations of Zn(II) ions” value is reported as “suppressed the interactions”. The “dissociation constant in the presence of physiological concentrations of Zn(II) ions” value in experiment [2] (Zn(II) 100-400 μM) was “practically unchanged”. The “interactions with the 1-16 domain of Aβ at higher concentrations of Zn(II) ions” value in experiment [2] (Zn(II) of the order of 1 millimolar (mM)) was “suppress the interactions”. The “binding to the 1-16 domain of the amyloid-β in the presence or absence of Zn(II) ions” value in experiment [2] (physiological Zn(II), micromolar levels (less than 500 μM)) is listed as “practically not altered”. In experiment [1], this molecule came in with a koff of 3.5e-05 ± 8e-06 s⁻¹ and a kon of 0.37 ± 0.05 M⁻¹ s⁻¹. On Aβ peptide (1-40), the IC50 is 20 µM and the “effect of prolonged incubation on amyloid aggregates” value is “irreversible disaggregation”.

With `CC(=O)N[C@@H](CCCNC(=N)N)C(=O)N[C@@H](C)C(=O)N[C@@H](CC(=O)O)C(=O)N[C@@H](CC(=O)O)C(N)=O` [SEQ. ID. NO. 5, Ac-RADD-NH2] (Ac-RADD-NH2), in experiment [1], the koff is 0.00024 ± 4e-05 s⁻¹ and the kon stood at 18.5 M⁻¹ s⁻¹. At Aβ peptide (1-40), the IC50 was determined as 20 µM and the “effect of prolonged incubation on amyloid aggregates” value is given as “irreversible disaggregation”.

With `CC(=O)N[C@@H](CC(=O)O)C(=O)N[C@@H](CC(=O)O)C(=O)N[C@@H](C)C(=O)N[C@@H](CCCCN)C(N)=O` [SEQ. ID. NO. 4, DDAK] (Ac-DDAK-NH2), in experiment [1], the koff stood at 0.0062 ± 0.0001 s⁻¹, the kon came out at 4.57 ± 0.09 M⁻¹ s⁻¹ and the Kd lay in the range of 1000 to 10000 µM.

Regarding `CC(=O)N[C@@H](Cc1c[nH]cn1)C(=O)N[C@@H](C)C(=O)N[C@@H](CC(=O)O)C(=O)N[C@@H](CC(=O)O)C(N)=O` [SEQ. ID. NO. 1, HADD] (Ac-HADD-NH2), in experiment [1], the koff turned out to be 0.0104 ± 2e-05 s⁻¹ and the kon stood at 3.2 ± 0.08 M⁻¹ s⁻¹.

For `CC(=O)N[C@@H](CC(=O)O)C(=O)N[C@@H](CCC(=O)O)C(=O)N[C@@H](C)C(=O)N[C@@H](CCCNC(=N)N)C(N)=O` [SEQ. ID. NO. 12, DEAR] (Ac-DEAR-NH2), in experiment [1], the koff was found to be 0.00709 ± 9e-05 s⁻¹, the kon came out at 3.58 ± 0.08 M⁻¹ s⁻¹ and the Kd fell in the range of 1000 to 10000 µM.

As for `CC(=O)N[C@@H](CCCCN)C(=O)N[C@@H](C)C(=O)N[C@@H](CC(=O)O)C(=O)N[C@@H](CCC(=O)O)C(N)=O` [SEQ. ID. NO. 15, KADE] (Ac-KADE-NH2), in experiment [1], the koff came to 0.0096 ± 0.0002 s⁻¹, the on-rate (kon) amounted to 2.2 ± 0.1 M⁻¹ s⁻¹ and the Kd is 1000 to 10000 µM.

Regarding `CC(=O)N[C@@H](CCCNC(=N)N)C(=O)N[C@@H](C)C(=O)N[C@@H](CCC(=O)O)C(=O)N[C@@H](CCC(=O)O)C(N)=O` [SEQ. ID. NO. 23, RAEE] (Ac-RAEE-NH2), in experiment [1], the koff came to 0.0112 ± 8e-05 s⁻¹, the kon was determined as 1.5 ± 0.1 M⁻¹ s⁻¹ and the Kd lay within 1000 to 10000 µM.

As usually defined, the koff is a measure of how fast the partners let go of each other. Low values mean a long-lived complex, high ones a short-lived complex. The kon is the rate constant with which the complex forms. High values mean faster complex formation, low ones slower complex formation. The Kd is the free concentration of one partner at which half of the binding sites on the other are occupied at equilibrium, for simple one-to-one binding.
